In one data set the test system is erythrocytes (RBCs). It counts as cell-based, human. The settings on record: for Hemolytic activity, lysed RBCs: 1 h. On the procedure:
(§1) Fresh venous blood from healthy donors was collected in lepirudine tubes (50 μg mL-1). Then 50 μL of blood were transferred to round-bottom 96-wells plate containing 150 μL of peptides previously diluted in RPMI-1640—GlutaMAX-I without phenol red (Gibco). 1:4 diluted blood was used as control. 50 μL of blood mixed with 150 μl 5% Tween-20 were used as positive control. After 1 h incubation at 37° C. and 5% CO2, the plate was centrifuged at 800 g, 150 μL of each sample were transferred to a flat-bottom 96-wells plate and the absorbance at 450 nm was measured. The percentage of hemolysis was calculated following the formula reported below: […]
To evaluate the hemolytic effect of the peptides on erythrocytes the blood was collected as reported above and centrifuged at 250 g for 10 min. Then plasma was discarded, and red blood cells were washed with 150 mM NaCl in 10 mM Tris pH 7.4 for three times. Next, the pellet was dilute 100 times with saline Tris buffer. 100 μL of this solution were added to round-bottom 96-wells plate containing 100 μL of peptides previously diluted in saline Tris buffer. After 1 h incubation at 37° C. and 5% CO2, the plate was centrifuged and the absorbance at 450 nm was measured, then the percentage of erythrocyte lysis was determined using formula reported above.
(§2) Data shown are mean values±SEM obtained from at least four independent experiments all made in triplicate. For each experiment blood from a different donor was used.

The next data set has as its system whole blood. It counts as cell-based, human. The settings on record: 1 h. On the procedure:
as §1, §2

Like-named read-outs stand apart in the source and are kept apart here. Marks after values point to notes of the source that are not given here. Where a SMILES comes first, the peptide text is derived from it. Bridges are numbered along the chain shown (N, C = ends). [ ]: non-standard residue; d: D form. S5 = C=CCCC[C@](C)(N)C(=O)O

Regarding `CC[C@H](C)[C@H](NC(=O)[C@H](Cc1c[nH]c2ccccc12)NC(=O)[C@H](CCCCN)NC(=O)[C@@H](N)CCCCN)C(=O)N[C@@]1(C)CCCC=CCCC[C@@](C)(C(=O)N[C@@H](CCC(N)=O)C(=O)N[C@@H](Cc2ccccc2)C(=O)NCC(=O)N[C@@H](CCC(=O)O)C(=O)O)NC(=O)[C@H]([C@@H](C)CC)NC(=O)[C@H](C(C)C)NC(=O)[C@H](CCCCN)NC1=O` [sKKW13, KKWIX1KVIX2QFGE] (H-KKWI[S5]KVI[S5]QFGE-OH; staple 5-9), the “hemolytic activity, RBCs or whole blood (heatmaps FIG. 4, FIG. 20a), in words” value in the data set with erythrocytes (RBCs) was “low hemolytic activity”.

As to `CC[C@H](C)[C@H](NC(=O)[C@H](Cc1c[nH]c2ccccc12)NC(=O)[C@H](CCCCN)NC(=O)[C@H](CCCCN)NC(=O)[C@H](CC(C)C)NC(=O)[C@H](CCCNC(=N)N)NC(=O)[C@H](Cc1ccccc1)NC(=O)[C@@H](NC(=O)[C@H](CCCNC(=N)N)NC(=O)[C@@H](N)CCCNC(=N)N)C(C)C)C(=O)N[C@@]1(C)CCCC=CCCC[C@@](C)(C(=O)N[C@@H](CCC(N)=O)C(=O)N[C@@H](Cc2ccccc2)C(=O)NCC(=O)N[C@@H](CCC(=O)O)C(=O)O)NC(=O)[C@H]([C@@H](C)CC)NC(=O)[C@H](C(C)C)NC(=O)[C@H](CCCCN)NC1=O` [sRRVF18, RRVFRLKKWIX1KVIX2QFGE] (H-RRVFRLKKWI[S5]KVI[S5]QFGE-OH; staple 11-15), the “Hemolytic activity, lysed RBCs in whole blood” value in the data set with whole blood is listed as below 1%. The “Hemolytic activity, lysed RBCs” value in the data set on erythrocytes (RBCs) was determined as 49.1 ± 4.9%.

In the case of `CC[C@H](C)[C@H](NC(=O)[C@H](Cc1c[nH]c2ccccc12)NC(=O)[C@H](CCCCN)NC(=O)[C@H](CCCCN)NC(=O)[C@H](CC(C)C)NC(=O)[C@H](CCCNC(=N)N)NC(=O)[C@H](Cc1ccccc1)NC(=O)[C@@H](NC(=O)[C@H](CCCCN)NC(=O)[C@@H](N)CCCCN)C(C)C)C(=O)N[C@@]1(C)CCCC=CCCC[C@@](C)(C(=O)N[C@@H](CCC(N)=O)C(=O)N[C@@H](Cc2ccccc2)C(=O)NCC(=O)N[C@@H](CCC(=O)O)C(=O)O)NC(=O)[C@H]([C@@H](C)CC)NC(=O)[C@H](C(C)C)NC(=O)[C@H](CCCCN)NC1=O` [sKKVF18, KKVFRLKKWIX1KVIX2QFGE] (H-KKVFRLKKWI[S5]KVI[S5]QFGE-OH; staple 11-15), the “Hemolytic activity, lysed RBCs in whole blood” value in the data set on whole blood is listed as below 1%. For the same compound, the “Hemolytic activity, lysed RBCs” value in the data set with erythrocytes (RBCs) is listed as 27.8 ± 3.0%.

Turning to `CC[C@H](C)[C@H](NC(=O)[C@H](Cc1c[nH]c2ccccc12)NC(=O)[C@H](CCCCN)NC(=O)[C@H](CCCCN)NC(=O)[C@H](CC(C)C)NC(=O)[C@H](CCCNC(=N)N)NC(=O)[C@H](Cc1ccccc1)NC(=O)[C@@H](NC(=O)[C@@H](N)Cc1cnc[nH]1)C(C)C)C(=O)N[C@@H](CCC(N)=O)C(=O)N[C@@H](CCCCN)C(=O)N[C@H](C(=O)N[C@H](C(=O)N[C@@H](CC(=O)O)C(=O)N[C@@H](CCC(N)=O)C(=O)N[C@@H](Cc1ccccc1)C(=O)NCC(=O)N[C@@H](CCC(=O)O)C(=O)O)[C@@H](C)CC)C(C)C` [HVF18, reference compound] (H-HVFRLKKWIQKVIDQFGE-OH), the “Hemolytic activity, lysed RBCs in whole blood” value in the data set with whole blood (50 μM) is recorded as <1* %. The “Hemolytic activity, lysed RBCs” value in the data set with erythrocytes (RBCs) (50 μM) was found to be 28.5 ± 3.0 %.

In the case of `CC[C@H](C)[C@H](NC(=O)[C@H](Cc1c[nH]c2ccccc12)NC(=O)[C@H](CCCCN)NC(=O)[C@H](CCCCN)NC(=O)[C@@H](N)CC(C)C)C(=O)N[C@@]1(C)CCCC=CCCC[C@@](C)(C(=O)N[C@@H](CCC(N)=O)C(=O)N[C@@H](Cc2ccccc2)C(=O)NCC(=O)N[C@@H](CCC(=O)O)C(=O)O)NC(=O)[C@H]([C@@H](C)CC)NC(=O)[C@H](C(C)C)NC(=O)[C@H](CCCCN)NC1=O` [sLKK14, LKKWIX1KVIX2QFGE] (H-LKKWI[S5]KVI[S5]QFGE-OH; staple 6-10), the “hemolytic activity, RBCs or whole blood (heatmaps FIG. 4, FIG. 20a), in words” value with erythrocytes (RBCs) is listed as “low hemolytic activity”.

These data come from patent US20250313820A1, “PEPTIDES WITH MULTIVALENT EFFECTS” (In2Cure AB, priority 2021, published 2025).
